Assay results reported in patent US20240101528A1, “SUBSTITUTED PYRAZOLO PIPERIDINE CARBOXYLIC ACIDS” (BAYER AKTIENGESELLSCHAFT, priority 2020, published 2024).
Structures can show the parent of a compound that is named as a salt.

Target: T1, recombinant guanylate cyclase reporter cell line (Rattus norvegicus, UniProt P20595)
T1 construct: expressed in transfected cells
T1 sequence (P20595 1-619): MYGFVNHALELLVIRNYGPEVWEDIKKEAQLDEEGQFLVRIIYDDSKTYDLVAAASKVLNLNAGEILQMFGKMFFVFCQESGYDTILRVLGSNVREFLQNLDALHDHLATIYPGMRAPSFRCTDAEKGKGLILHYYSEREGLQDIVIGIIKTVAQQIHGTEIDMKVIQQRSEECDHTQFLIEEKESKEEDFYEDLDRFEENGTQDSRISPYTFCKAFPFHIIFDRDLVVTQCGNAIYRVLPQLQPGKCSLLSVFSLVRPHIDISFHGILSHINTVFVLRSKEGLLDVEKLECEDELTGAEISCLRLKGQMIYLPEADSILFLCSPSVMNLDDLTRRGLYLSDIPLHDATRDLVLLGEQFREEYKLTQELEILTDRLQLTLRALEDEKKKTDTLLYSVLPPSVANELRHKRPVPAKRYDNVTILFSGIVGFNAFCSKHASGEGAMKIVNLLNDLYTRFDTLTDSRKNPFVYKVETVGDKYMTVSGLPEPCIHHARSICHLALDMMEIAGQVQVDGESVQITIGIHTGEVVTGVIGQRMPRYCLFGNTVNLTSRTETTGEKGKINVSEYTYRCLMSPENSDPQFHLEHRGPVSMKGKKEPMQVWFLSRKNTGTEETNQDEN
T1 sequence (P19686 1-690 partner): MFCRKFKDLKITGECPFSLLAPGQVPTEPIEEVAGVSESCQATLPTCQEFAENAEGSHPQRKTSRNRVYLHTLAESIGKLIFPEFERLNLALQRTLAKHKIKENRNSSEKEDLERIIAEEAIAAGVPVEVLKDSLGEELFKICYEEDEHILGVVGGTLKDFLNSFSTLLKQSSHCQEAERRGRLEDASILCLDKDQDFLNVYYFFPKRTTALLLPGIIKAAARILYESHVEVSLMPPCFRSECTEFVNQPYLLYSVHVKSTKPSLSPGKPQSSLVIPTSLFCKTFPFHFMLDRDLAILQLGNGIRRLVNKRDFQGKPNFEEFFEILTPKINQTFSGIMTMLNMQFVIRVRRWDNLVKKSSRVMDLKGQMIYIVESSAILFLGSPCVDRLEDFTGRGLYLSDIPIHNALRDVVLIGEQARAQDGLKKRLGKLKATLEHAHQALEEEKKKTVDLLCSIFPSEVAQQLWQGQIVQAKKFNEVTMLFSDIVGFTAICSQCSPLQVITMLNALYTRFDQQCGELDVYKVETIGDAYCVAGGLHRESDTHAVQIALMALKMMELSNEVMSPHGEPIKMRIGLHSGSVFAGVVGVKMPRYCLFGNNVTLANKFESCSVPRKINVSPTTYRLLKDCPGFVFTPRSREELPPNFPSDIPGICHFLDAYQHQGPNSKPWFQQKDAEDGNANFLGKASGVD
Assay: Effect on a recombinant guanylate cyclase reporter cell line
Assay type: cell-based
Conditions: for EC50: half maximal effective concentration; for MEC: minimum effective concentration
Protocol: B-1. Effect on a Recombinant Guanylate Cyclase Reporter Cell Line
The cellular activity of the compounds according to the invention was determined using a recombinant guanylate cyclase reporter cell line, as described in F. Wunder et al., Anal. Biochem. 339, 104-112 (2005).

Row | EC50 [nM] | MEC [nM] | SMILES
1 | 1.8 | 0.3 | CC(F)(F)CN1CCN(c2ccc(-c3ccc(Cl)cc3N3CCCC(n4ncc(C(=O)O)c4C(F)F)C3)cc2)CC1 (single isomer, unassigned; enantiomer 1) [Example 24, 1-(1-{4-Chloro-4′-[4-(2,2-difluoropropyl)piperazin-1-yl][biphenyl]-2-yl}piperidin-3-yl)-5-(difluoromethyl)-1H-pyrazole-4-carboxylic acid hydrochloride (Enantiomer 1)]
2 | 18 | 3.0 | O=C(O)c1cnn(C2CCCN(c3cc(Cl)ccc3-c3cnc(N4CCN(CC5CC5)CC4)nc3)C2)c1C(F)F (single isomer, unassigned; enantiomer 2) [Example 72, 1-[1-(5-Chloro-2-{2-[4-(cyclopropylmethyl)piperazin-1-yl]pyrimidin-5-yl}phenyl)piperidin-3-yl]-5-(difluoromethyl)-1H-pyrazole-4-carboxylic acid hydrochloride (Enantiomer 2)]
3 | 45 | 10.0 | O=C(O)c1cnn(C2CCCN(c3cc(Cl)ccc3-c3ccc(N4CCCC4)cc3)C2)c1C(F)F (single isomer, unassigned; enantiomer 1) [Example 44, 1-{1-[4-Chloro-4′-(pyrrolidin-1-yl)[biphenyl]-2-yl]piperidin-3-yl}-5-(difluoromethyl)-1H-pyrazole-4-carboxylic acid (Enantiomer 1)]
4 | 89 | 3.0 | CC(C)(C)CN1CCN(c2ccc(-c3ccc(Cl)cc3N3CCCC(n4ncc(C(=O)O)c4C(F)F)C3)cc2)CC1 (single isomer, unassigned; enantiomer 2) [Example 13, 1-[(1-{4-Chloro-4′-[4-(2,2-dimethylpropyl)piperazin-1-yl][biphenyl]-2-yl}piperidin-3-yl]-5-(difluoromethyl)-1H-pyrazole-4-carboxylic acid hydrochloride (Enantiomer 2)]
5 | 2 | 0.3 | O=C(O)c1cnn(C2CCCN(c3cc(Cl)ccc3-c3ccc(N4CCN(CC5CC5(F)F)CC4)cc3)C2)c1C(F)F (single isomer, unassigned; diastereomer 3) [Example 30, 1-{1-[4-Chloro-4′-(4-{[2,2-difluorocyclopropyl]methyl}piperazin-1-yl)[biphenyl]-2-yl]piperidin-3-yl}-5-(difluoromethyl)-1H-pyrazole-4-carboxylic acid hydrochloride (Diastereomer 3)]
6 | 68 | 30.0 | CC(=O)N1CCN(c2ccc(-c3ccc(Cl)cc3N3CCCC(n4ncc(C(=O)O)c4C(F)F)C3)cn2)CC1 (single isomer, unassigned; enantiomer 2) [Example 68, 1-(1-{2-[6-(4-Acetylpiperazin-1-yl)pyridin-3-yl]-5-chlorophenyl}piperidin-3-yl)-5-(difluoromethyl)-1H-pyrazole-4-carboxylic acid hydrochloride (Enantiomer 2)]
7 | 6.7 | 0.6 | O=C(O)c1cnn(C2CCCN(c3cc(Cl)ccc3-c3ccc(N4CCN(CC5CC(F)(F)C5)CC4)cc3)C2)c1C(F)F (single isomer, unassigned; enantiomer 1) [Example 15, 1-[1-(4-Chloro-4′-{4-[(3,3-difluorocyclobutyl)methyl]piperazin-1-yl}[biphenyl]-2-yl)piperidin-3-yl]-5-(difluoromethyl)-1H-pyrazole-4-carboxylic acid hydrochloride (Enantiomer 1)]
8 | < 1 | 0.3 | O=C(O)c1cnn(C2CCCN(c3cc(Cl)ccc3-c3ccc(N4CCN(CC(F)F)CC4)cc3)C2)c1C(F)F (single isomer, unassigned; enantiomer 1) [Example 18, 1-[1-{4-Chloro-4′-[4-(2,2-difluoroethyl)piperazin-1-yl][biphenyl]-2-yl}piperidin-3-yl]-5-(difluoromethyl)-1H-pyrazole-4-carboxylic acid hydrochloride (Enantiomer 1)]
9 | 2.4 | 0.3 | CC(F)(F)CN1CCN(c2ccc(-c3ccc(Cl)cc3N3CCCC(n4ncc(C(=O)O)c4C(F)F)C3)cc2)CC1 (single isomer, unassigned; enantiomer 2) [Example 25, 1-(1-{4-Chloro-4′-[4-(2,2-difluoropropyl)piperazin-1-yl][biphenyl]-2-yl}piperidin-3-yl)-5-(difluoromethyl)-1H-pyrazole-4-carboxylic acid hydrochloride (Enantiomer 2)]
10 | 42.5 | 10.0 | O=C(O)c1cnn(C2CCCN(c3cc(Cl)ccc3-c3ccc(N4CCN(C5COC5)CC4)cc3)C2)c1C(F)F (single isomer, unassigned; enantiomer 2) [Example 43, 1-(1-{4-Chloro-4′-[4-(oxetan-3-yl)piperazin-1-yl][biphenyl]-2-yl}piperidin-3-yl)-5-(difluoromethyl)-1H-pyrazole-4-carboxylic acid hydrochloride (Enantiomer 2)]
11 | 8.7 | 3.0 | O=C(O)c1cnn(C2CCCN(c3cc(Cl)ccc3-c3ccc(C4CN(CCC(F)(F)F)C4)cc3)C2)c1C(F)F (single isomer, unassigned; enantiomer 2) [Example 59, 1-(1-{4-Chloro-4′-[1-(3,3,3-trifluoropropyl)azetidin-3-yl][biphenyl]-2-yl}piperidin-3-yl)-5-(difluoromethyl)-1H-pyrazole-4-carboxylic acid hydrochloride (Enantiomer 2)]
12 | 2.8 | 0.3 | O=C(O)c1cnn(C2CCCN(c3cc(Cl)ccc3-c3ccc(N4CCN(CC5CC5(F)F)CC4)cc3)C2)c1C(F)F (mixture of isomers) [Example 27, 1-{1-[4-Chloro-4′-(4-{[2,2-difluorocyclopropyl]methyl}piperazin-1-yl)[biphenyl]-2-yl]piperidin-3-yl}-5-(difluoromethyl)-1H-pyrazole-4-carboxylic acid hydrochloride (Diastereomeric mixture 2)]
13 | 14.5 | 1.0 | O=C(O)c1cnn(C2CCCN(c3cc(Cl)ccc3-c3ccc(N4CCN(CC5CC5C(F)(F)F)CC4)cc3)C2)c1C(F)F (mixture of isomers) [Example 39, 1-{1-[4-Chloro-4′-(4-{[cis-2-(trifluoromethyl)cyclopropyl]methyl}piperazin-1-yl) [biphenyl]-2-yl]piperidin-3-yl}-5-(difluoromethyl)-1H-pyrazole-4-carboxylic acid hydrochloride (Diastereomeric Mixture 2)]
14 | 4.2 | 1.0 | O=C(O)c1cnn(C2CCCN(c3cc(Cl)ccc3-c3ccc(N4CCN(C[C@@H]5C[C@@H]5F)CC4)cc3)C2)c1C(F)F (single isomer, unassigned; stereoisomer 2) [Example 36]
15 | 79.5 | 10.0 | CCN1CCN(c2ccc(-c3ccc(C(F)(F)F)cc3N3CCCC(n4ncc(C(=O)O)c4C(F)F)C3)cc2)CC1 (single isomer, unassigned; enantiomer 2) [Example 74, 5-(Difluoromethyl)-1-{1-[4′-(4-ethylpiperazin-1-yl)-4-(trifluoromethyl)[biphenyl]-2-yl]piperidin-3-yl}-1H-pyrazole-4-carboxylic acid hydrochloride (Enantiomer 2)]
